Reference: the supplement of paper PMC10307832

Key:
Test in all cases: relative viability (nuclei count vs DMSO), 5 days (fraction); higher = more cells survive
BAM7 + Lapatinib = compound: CCOC1=CC=CC=C1N=NC2=C(NN(C2=O)C3=NC(=CS3)C4=CC=CC=C4)C [BAM7] + CS(=O)(=O)CCNCc1ccc(-c2ccc3ncnc(Nc4ccc(OCc5cccc(F)c5)c(Cl)c4)c3c2)o1 [Lapatinib] (partner 2 µM)
Procedure, shortened: (§1)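 For relative viability, nuclei counts in treated wells were divided by those in vehicle wells. Lung cancer cell lines had been pin-tool dosed in 1536-well plates the day after seeding and cultured for 5 days, then fixed and stained in one step (final 0.05% Triton X-100, 1% formaldehyde, 1 ug/ml Hoechst) and imaged at 4×. Doses were one drug alone or a fixed anchor-drug dose plus five library-drug doses (not always all listed) in √10 steps, and values are duplicate-plate medians.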

[1] = compound: CCn1c(-c2nonc2N)nc2c(C#CC(C)(C)O)ncc(OC[C@H]3CCCNC3)c21 + Cc1cc(Nc2cc(N3CCN(C)CC3)nc(Sc3ccc(NC(=O)C4CC4)cc3)n2)n[nH]1 [Tozasertib] (partner 0.1 µM)
Procedure, shortened: as §1

[2] = compound: CCn1c(-c2nonc2N)nc2c(C#CC(C)(C)O)ncc(OC[C@H]3CCCNC3)c21 + Cc1nc(NC(=O)N2CCC[C@H]2C(N)=O)sc1-c1ccnc(C(C)(C)C(F)(F)F)c1 [Alpelisib] (partner 2 µM)
Procedure, shortened: as §1

[3] = compound: CCn1c(-c2nonc2N)nc2c(C#CC(C)(C)O)ncc(OC[C@H]3CCCNC3)c21 + O=C(c1cc(Cc2n[nH]c(=O)c3ccccc23)ccc1F)N1CCN(C(=O)C2CC2)CC1 [Olaparib] (partner 8 µM)
Procedure, shortened: as §1

Cell Line | relative viability (BAM7 + Lapatinib; first compound 0.5 µM) | relative viability (BAM7 + Lapatinib; first compound 5 µM) | relative viability (BAM7 + Lapatinib; first compound 15.81 µM) | relative viability (BAM7 + Lapatinib; first compound 50 µM) | relative viability ([1]; first compound 0.01 µM) | relative viability ([1]; first compound 0.03162 µM) | relative viability ([1]; first compound 0.1 µM) | relative viability ([1]; first compound 0.3162 µM) | relative viability ([1]; first compound 1 µM) | relative viability ([2]; first compound 0.01 µM) | relative viability ([2]; first compound 0.03162 µM) | relative viability ([2]; first compound 0.1 µM) | relative viability ([2]; first compound 0.3162 µM) | relative viability ([2]; first compound 1 µM) | relative viability ([3]; first compound 0.01 µM) | relative viability ([3]; first compound 0.03162 µM) | relative viability ([3]; first compound 0.1 µM) | relative viability ([3]; first compound 0.3162 µM) | relative viability ([3]; first compound 1 µM)
HCC-78 | 0.74 | 0.69 | 0.98 | 1.11 | 0.391 | 0.414 | 0.36 | 0.41 | 0.405 | 0.306 | 0.372 | 0.351 | 0.307 | 0.356 | 0.739 | 0.732 | 0.827 | 0.794 | 0.564
HCC-366 | 1.09 | 1.1 | 1.03 | 0.984 | 0.135 | 0.12 | 0.194 | 0.111 | 0.129 | 0.362 | 0.427 | 0.293 | 0.475 | 0.386 | 0.421 | 0.366 | 0.359 | 0.321 | 0.354
HCC-827 | 0.205 | 0.2 | 0.205 | 0.202 | 0.391 | 0.47 | 0.383 | 0.449 | 0.43 | 1.01 | 0.93 | 0.948 | 1 | 1.05 | 0.602 | 0.671 | 0.661 | 0.622 | 0.683
HOP-62 | 1.09 | 1.27 | 0.969 | 0.986 | 0.369 | 0.316 | 0.308 | 0.406 | 0.404 | 0.966 | 1.12 | 0.819 | 0.951 | 1.13 | 0.396 | 0.419 | 0.445 | 0.521 | 0.603
IA-LM | 0.766 | 0.816 | 0.784 | 0.748 |  |  |  |  |  | 0.728 | 0.733 | 0.987 | 0.654 | 0.613 | 0.942 | 0.791 | 0.937 | 1.3 | 0.786
LC-2-ad | 1.09 | 0.948 | 0.933 | 0.859 | 0.457 | 0.442 | 0.474 | 0.44 | 0.451 | 0.898 | 0.973 | 0.925 | 0.823 | 0.565 | 0.739 | 0.719 | 0.716 | 0.657 | 0.698
LCLC-97TM1 | 1 | 1.21 | 1.04 | 1.31 | 0.203 | 0.31 | 0.211 | 0.271 | 0.204 |  | 0.278 | 0.224 | 0.235 | 0.257 | 0.413 | 0.509 | 0.347 | 0.391 | 0.321
LCLC-103H |  |  |  |  | 0.41 | 0.555 | 0.432 | 0.472 | 0.453 | 0.984 | 0.945 | 1 | 0.848 | 0.953 | 0.705 | 0.795 | 0.747 | 0.766 | 0.795
LK-2 | 1.22 | 1.03 | 1.02 | 1.11 | 0.165 | 0.171 |  |  | 0.184 | 1.24 | 1.27 | 0.984 | 0.916 | 1.01 | 0.641 | 0.566 | 0.645 | 0.865 | 0.72
LOU-NH91 | 0.749 | 0.822 | 0.767 | 0.819 | 0.702 | 0.763 | 0.634 | 0.665 | 0.732 | 0.751 | 0.795 | 0.736 | 0.706 | 0.732 | 0.936 | 0.914 | 0.936 | 0.797 | 0.856
LU99A | 0.975 | 0.788 | 1.09 | 1.03 | 0.296 | 0.268 | 0.296 | 0.308 | 0.315 | 0.586 | 0.558 | 0.538 | 0.504 | 0.47 | 0.282 | 0.312 | 0.251 | 0.258 | 0.288
NCI-H441 |  |  |  |  | 0.699 | 0.53 | 0.538 | 0.57 | 0.56 | 0.653 | 0.891 | 0.749 | 0.683 | 0.717 | 0.554 | 0.726 | 0.529 | 0.551 | 0.567
NCI-H522 |  |  |  |  | 0.56 | 0.55 | 0.52 | 0.517 | 0.564 |  |  |  |  |  | 0.622 | 0.779 | 0.724 | 0.628 | 0.581
NCI-H1299 | 0.835 | 1.01 | 0.954 | 0.964 |  |  |  |  |  | 1.05 | 1.06 | 1.05 | 1.03 | 0.968 | 0.954 | 0.965 | 0.936 | 0.995 | 0.984
NCI-H1563 | 1.01 | 0.962 | 0.969 | 1.05 |  |  |  |  |  | 0.872 | 0.913 | 0.913 | 0.837 | 0.826 |  |  |  |  | 
NCI-H1623 |  |  |  |  | 0.433 | 0.468 | 0.446 | 0.404 | 0.492 |  |  |  |  |  |  |  |  |  | 
NCI-H1648 |  |  |  |  |  | 0.527 | 0.466 | 0.444 | 0.574 |  |  |  |  |  | 0.937 | 0.851 | 0.767 | 0.604 | 0.567
NCI-H1650 | 0.758 | 0.726 | 0.806 | 0.855 | 0.398 | 0.474 | 0.44 | 0.403 | 0.44 |  |  |  |  |  | 0.782 | 0.837 | 0.893 | 0.761 | 0.738
NCI-H1703 | 1.1 | 1.17 | 0.936 | 1.2 |  |  |  |  |  | 0.333 | 0.374 | 0.392 | 0.28 | 0.299 | 0.406 | 0.506 | 0.468 | 0.587 | 0.31
NCI-H1792 | 0.963 | 0.914 | 1.09 | 0.842 |  |  |  |  |  | 0.776 | 0.697 | 0.667 | 0.596 | 0.791 | 0.53 | 0.502 | 0.473 | 0.374 | 0.589
NCI-H2342 |  |  |  |  | 0.521 | 0.588 | 0.466 | 0.572 | 0.612 |  |  |  |  |  | 0.517 | 0.42 | 0.486 | 0.482 | 0.44
SW 900 |  |  |  |  | 0.626 | 0.747 | 0.646 | 0.561 | 0.579 |  |  |  |  |  | 0.871 | 0.853 | 0.742 | 0.88 | 0.864
